pIC50: −log10 of the molar value.
Legend:
[1] = test system: T47D; test: Breast T-47D cell line MDS Pharma Services Proliferation Assay; assay type: functional, cell-based, Homo sapiens
[2] = test system: Hep 3B2; test: Liver Hep 3B cell line MDS Pharma Services Proliferation Assay; assay type: functional, cell-based, Homo sapiens
[3] = target: Mitogen-activated protein kinase 1 (Mus musculus) (UniProt P63085); test: MAPK2 (m) Upstate kinase activity assay; conditions: Compound concentration 10.0 uM
Mitogen-activated protein kinase 1 (Mus musculus), sequence (P63085 whole entry): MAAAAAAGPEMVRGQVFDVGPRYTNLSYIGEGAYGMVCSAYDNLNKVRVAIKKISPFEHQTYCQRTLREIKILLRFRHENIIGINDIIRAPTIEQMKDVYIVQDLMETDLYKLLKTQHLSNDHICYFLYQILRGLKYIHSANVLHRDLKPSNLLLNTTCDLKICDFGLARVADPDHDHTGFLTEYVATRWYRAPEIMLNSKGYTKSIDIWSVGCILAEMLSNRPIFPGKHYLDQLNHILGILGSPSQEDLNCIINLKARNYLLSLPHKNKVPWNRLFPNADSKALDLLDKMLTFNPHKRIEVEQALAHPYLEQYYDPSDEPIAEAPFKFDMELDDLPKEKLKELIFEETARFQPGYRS

[4] = target: Mitogen-activated protein kinase 1 (Homo sapiens) (UniProt P28482); test: MAPK2 (h) Upstate kinase activity assay; conditions: Compound concentration 10.0 uM
Mitogen-activated protein kinase 1 (Homo sapiens), sequence (P28482 whole entry): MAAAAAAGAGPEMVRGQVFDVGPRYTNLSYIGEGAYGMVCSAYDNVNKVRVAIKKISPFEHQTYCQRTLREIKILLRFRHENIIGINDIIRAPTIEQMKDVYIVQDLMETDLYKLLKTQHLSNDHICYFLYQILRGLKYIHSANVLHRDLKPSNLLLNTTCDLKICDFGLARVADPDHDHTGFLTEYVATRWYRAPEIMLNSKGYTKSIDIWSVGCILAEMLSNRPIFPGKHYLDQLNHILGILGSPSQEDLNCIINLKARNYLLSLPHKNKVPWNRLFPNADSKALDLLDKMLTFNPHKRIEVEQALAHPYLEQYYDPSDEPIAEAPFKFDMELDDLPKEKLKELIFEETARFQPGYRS

[5] = target: Macrophage colony-stimulating factor 1 receptor (Homo sapiens) (UniProt P07333); test: Fms (h) Upstate kinase activity assay; conditions: Compound concentration 10.0 uM
Macrophage colony-stimulating factor 1 receptor (Homo sapiens), sequence (P07333 whole entry): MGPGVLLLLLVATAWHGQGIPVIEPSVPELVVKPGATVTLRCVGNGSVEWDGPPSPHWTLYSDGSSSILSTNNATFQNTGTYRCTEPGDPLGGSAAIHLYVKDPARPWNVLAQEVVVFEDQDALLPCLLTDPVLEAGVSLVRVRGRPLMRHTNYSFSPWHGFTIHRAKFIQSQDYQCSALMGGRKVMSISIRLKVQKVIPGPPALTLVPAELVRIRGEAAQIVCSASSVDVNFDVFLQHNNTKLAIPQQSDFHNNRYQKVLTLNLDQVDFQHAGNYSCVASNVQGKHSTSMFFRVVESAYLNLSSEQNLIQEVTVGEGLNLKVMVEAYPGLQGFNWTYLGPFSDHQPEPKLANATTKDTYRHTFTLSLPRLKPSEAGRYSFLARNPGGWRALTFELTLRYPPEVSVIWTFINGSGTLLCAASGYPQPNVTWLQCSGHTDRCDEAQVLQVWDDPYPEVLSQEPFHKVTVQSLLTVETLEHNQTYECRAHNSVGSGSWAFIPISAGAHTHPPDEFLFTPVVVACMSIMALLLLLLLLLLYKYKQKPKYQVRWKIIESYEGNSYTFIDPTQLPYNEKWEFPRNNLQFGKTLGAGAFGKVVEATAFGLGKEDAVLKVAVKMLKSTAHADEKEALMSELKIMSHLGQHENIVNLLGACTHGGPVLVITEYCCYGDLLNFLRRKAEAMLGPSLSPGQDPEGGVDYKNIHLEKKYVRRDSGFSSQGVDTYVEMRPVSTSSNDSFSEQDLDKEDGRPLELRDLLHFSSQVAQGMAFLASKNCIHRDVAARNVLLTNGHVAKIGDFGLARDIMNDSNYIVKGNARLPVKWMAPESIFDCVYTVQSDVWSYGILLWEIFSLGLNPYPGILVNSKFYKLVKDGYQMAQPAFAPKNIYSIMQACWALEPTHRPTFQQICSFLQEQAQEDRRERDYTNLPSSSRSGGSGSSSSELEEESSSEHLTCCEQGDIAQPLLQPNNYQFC

[6] = target: Protein kinase C zeta type (Homo sapiens) (UniProt Q05513); test: PKCzeta (h) Upstate kinase activity assay; conditions: Compound concentration 10.0 uM
Protein kinase C zeta type (Homo sapiens), sequence (Q05513 whole entry): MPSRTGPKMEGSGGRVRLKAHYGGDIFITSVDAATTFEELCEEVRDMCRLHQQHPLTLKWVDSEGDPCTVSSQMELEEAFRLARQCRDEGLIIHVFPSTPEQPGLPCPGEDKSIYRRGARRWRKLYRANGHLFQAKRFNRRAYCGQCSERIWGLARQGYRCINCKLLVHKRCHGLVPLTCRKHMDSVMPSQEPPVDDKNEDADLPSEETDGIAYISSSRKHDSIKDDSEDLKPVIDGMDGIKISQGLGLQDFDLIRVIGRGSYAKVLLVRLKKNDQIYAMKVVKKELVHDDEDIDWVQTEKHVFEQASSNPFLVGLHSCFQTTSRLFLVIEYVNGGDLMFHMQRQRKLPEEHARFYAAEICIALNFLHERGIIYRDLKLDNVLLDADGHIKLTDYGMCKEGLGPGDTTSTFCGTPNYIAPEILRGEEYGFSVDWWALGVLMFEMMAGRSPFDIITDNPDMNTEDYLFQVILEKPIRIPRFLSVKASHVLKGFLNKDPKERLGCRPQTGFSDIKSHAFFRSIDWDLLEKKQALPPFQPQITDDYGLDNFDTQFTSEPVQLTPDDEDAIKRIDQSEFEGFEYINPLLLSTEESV

[7] = target: Cyclin-dependent kinase 2/cyclin A (Homo sapiens) (UniProt P24941+P20248+P78396); test: CDK2/ cyclin A (h) Upstate kinase activity assay; assay type: protein-complex assay; conditions: Compound concentration 10.0 uM
[8] = test system: HC-4; test: Liver HC-4 cell line MDS Pharma Services Proliferation Assay; assay type: functional, cell-based, Homo sapiens
[9] = target: T1, Serine/threonine-protein kinase D2 (Homo sapiens) (UniProt Q9BZL6); test: PKD2 (h) Upstate kinase activity assay; conditions: Compound concentration 10.0 uM
T1 sequence (whole entry): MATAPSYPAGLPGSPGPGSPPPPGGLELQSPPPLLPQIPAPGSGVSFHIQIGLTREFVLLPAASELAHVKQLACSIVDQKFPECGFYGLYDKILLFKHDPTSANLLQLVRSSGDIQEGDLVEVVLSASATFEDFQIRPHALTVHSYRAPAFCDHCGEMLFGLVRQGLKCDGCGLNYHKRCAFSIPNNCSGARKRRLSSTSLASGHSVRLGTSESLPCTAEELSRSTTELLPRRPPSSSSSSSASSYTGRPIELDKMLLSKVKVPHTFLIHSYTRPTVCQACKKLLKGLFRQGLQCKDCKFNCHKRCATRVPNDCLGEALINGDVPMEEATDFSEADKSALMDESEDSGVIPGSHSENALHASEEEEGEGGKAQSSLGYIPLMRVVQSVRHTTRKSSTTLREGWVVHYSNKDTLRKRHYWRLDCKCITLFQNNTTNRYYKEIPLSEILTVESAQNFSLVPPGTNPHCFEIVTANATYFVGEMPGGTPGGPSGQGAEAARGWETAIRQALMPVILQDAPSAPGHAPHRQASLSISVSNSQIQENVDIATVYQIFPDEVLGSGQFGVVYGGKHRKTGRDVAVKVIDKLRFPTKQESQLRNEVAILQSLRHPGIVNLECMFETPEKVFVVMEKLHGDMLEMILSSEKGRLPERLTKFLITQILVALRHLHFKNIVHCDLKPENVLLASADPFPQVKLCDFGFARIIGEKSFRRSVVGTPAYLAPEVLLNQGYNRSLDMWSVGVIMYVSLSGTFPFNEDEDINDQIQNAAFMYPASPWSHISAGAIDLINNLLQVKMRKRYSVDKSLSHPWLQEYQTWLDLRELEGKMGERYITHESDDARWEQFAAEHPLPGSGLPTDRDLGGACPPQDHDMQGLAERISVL

[10] = target: CDK7/Cyclin H/MNAT1 (Homo sapiens) (UniProt P51946+P50613+P51948); test: CDK7/ cyclin H/ MATI (h) Upstate kinase activity assay; assay type: protein-complex assay; conditions: Compound concentration 10.0 uM
[11] = target: T2, Tyrosine-protein kinase receptor TYRO3 (Homo sapiens) (UniProt Q06418); test: Rse (h) Upstate kinase activity assay; conditions: Compound concentration 10.0 uM
T2 sequence (whole entry): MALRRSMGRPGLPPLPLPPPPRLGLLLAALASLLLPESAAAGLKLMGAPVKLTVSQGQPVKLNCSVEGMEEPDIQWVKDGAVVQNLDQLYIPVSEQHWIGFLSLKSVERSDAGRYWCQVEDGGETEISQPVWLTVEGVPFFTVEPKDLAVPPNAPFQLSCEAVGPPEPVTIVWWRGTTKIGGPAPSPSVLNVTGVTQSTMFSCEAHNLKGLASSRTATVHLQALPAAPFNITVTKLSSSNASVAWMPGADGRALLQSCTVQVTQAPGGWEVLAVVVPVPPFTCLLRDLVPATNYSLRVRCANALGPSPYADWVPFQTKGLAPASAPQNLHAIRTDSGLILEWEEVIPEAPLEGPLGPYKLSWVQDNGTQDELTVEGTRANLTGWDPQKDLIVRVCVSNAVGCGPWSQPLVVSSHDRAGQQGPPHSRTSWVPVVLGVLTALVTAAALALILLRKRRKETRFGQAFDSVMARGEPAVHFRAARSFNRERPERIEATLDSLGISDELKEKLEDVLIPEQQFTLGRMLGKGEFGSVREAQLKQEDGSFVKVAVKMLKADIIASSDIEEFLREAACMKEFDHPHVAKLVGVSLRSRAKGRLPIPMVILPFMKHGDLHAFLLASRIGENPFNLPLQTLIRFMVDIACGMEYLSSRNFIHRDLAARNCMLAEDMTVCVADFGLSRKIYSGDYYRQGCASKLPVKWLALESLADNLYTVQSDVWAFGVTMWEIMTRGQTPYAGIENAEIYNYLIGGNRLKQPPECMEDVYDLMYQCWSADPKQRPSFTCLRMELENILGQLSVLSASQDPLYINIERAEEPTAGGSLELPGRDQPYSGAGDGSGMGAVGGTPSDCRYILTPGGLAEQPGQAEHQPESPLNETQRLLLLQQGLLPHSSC

[12] = test system: A498; test: Kidney A-498 cell line MDS Pharma Services Proliferation Assay; assay type: functional, cell-based, Homo sapiens
[13] = test system: Epidermal growth factor receptor (Homo sapiens), P00533 [UNDEFINED MUTATION]; conditions: Compound concentration 100.0 nM
Epidermal growth factor receptor (Homo sapiens), P00533 [UNDEFINED MUTATION], sequence (P00533 whole entry, looked up, change not shown): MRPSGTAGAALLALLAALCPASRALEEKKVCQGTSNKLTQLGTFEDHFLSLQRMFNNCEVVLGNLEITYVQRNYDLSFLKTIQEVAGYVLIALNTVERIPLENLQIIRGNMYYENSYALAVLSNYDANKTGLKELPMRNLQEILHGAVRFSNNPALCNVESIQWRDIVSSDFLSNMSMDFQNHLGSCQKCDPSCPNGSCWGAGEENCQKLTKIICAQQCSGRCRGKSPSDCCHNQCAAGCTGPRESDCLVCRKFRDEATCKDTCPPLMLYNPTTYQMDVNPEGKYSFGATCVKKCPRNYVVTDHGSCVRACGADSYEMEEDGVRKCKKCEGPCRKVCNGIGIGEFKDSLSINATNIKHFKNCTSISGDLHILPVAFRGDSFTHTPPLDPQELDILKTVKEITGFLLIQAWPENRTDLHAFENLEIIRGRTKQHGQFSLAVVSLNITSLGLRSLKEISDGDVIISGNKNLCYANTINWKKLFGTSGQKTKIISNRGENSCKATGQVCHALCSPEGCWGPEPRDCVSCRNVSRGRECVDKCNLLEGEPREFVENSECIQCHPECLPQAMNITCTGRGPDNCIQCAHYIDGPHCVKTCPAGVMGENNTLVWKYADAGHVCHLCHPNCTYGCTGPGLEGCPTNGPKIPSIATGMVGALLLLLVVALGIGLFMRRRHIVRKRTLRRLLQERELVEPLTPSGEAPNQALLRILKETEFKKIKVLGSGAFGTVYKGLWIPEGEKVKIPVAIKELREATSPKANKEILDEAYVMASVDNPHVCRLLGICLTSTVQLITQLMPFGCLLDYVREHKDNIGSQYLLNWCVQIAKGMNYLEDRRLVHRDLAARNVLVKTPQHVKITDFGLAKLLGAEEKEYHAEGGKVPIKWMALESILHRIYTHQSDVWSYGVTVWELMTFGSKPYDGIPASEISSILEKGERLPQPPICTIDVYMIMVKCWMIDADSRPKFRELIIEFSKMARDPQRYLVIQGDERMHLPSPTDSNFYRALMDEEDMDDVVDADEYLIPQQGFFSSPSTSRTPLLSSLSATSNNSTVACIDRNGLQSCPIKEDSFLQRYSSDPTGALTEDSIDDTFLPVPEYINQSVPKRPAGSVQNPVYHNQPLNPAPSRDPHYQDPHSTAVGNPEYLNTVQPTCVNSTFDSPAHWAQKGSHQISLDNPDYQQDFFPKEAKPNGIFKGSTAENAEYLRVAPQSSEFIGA

[14] = target: Sodium-dependent noradrenaline transporter (Homo sapiens) (UniProt P23975); conditions: Compound concentration 10.0 uM
Sodium-dependent noradrenaline transporter (Homo sapiens), sequence (P23975 whole entry): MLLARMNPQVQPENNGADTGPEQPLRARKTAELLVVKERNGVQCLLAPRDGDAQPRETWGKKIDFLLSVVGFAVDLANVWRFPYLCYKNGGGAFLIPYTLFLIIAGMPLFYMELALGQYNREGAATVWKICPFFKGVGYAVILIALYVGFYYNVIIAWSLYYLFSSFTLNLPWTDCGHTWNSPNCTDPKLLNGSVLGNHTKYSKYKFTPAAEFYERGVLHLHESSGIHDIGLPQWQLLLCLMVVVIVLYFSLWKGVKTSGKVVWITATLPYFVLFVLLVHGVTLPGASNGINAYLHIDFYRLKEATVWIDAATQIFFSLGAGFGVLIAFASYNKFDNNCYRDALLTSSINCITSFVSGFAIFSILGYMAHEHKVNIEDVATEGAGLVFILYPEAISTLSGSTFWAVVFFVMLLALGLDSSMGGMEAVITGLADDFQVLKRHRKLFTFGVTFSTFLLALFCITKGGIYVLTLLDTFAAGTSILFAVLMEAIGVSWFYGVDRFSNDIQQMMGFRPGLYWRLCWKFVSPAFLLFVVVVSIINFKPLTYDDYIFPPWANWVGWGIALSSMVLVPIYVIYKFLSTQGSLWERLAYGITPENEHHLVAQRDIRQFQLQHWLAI

Cc1c[nH]c2nccc(Oc3c(F)cc(Nc4cc(Cl)nc(N)n4)cc3F)c12 [BAY-549]
pIC50 ([1]; Homo sapiens, T47D): 5.54 | TGI ([1]; Homo sapiens, T47D): 15 µM | CC50 ([1]; Homo sapiens, T47D, read-out: LC50 (the source's name)): 75 µM | Mean % growth (n = 2) for 1.0 µM probe concentration ([1]; ± SEM 1 % growth): 86% | Mean % growth (n = 2) for 100.0 µM probe concentration ([1]; ± SEM 2 % growth): -45% | Mean % growth (n = 2) for 10.0 µM probe concentration ([1]; ± SEM 4 % growth): -2% | Mean % growth (n = 2) for 0.01 µM probe concentration ([1]; ± SEM 6 % growth): 106% | Mean % growth (n = 2) for 0.1 µM probe concentration ([1]; ± SEM 8 % growth): 97% | Mean % growth (n = 2) for 10.0 µM probe concentration [2]: 11% | pIC50 ([2]; Homo sapiens, Hep3B): 5.89 | TGI ([2]; Homo sapiens, Hep3B): 45 µM | CC50 ([2]; Homo sapiens, Hep3B, read-out: LC50 (the source's name)): > 100 µM | Mean % growth (n = 2) for 0.1 µM probe concentration ([2]; ± SEM 3 % growth): 82% | Mean % growth (n = 2) for 100.0 µM probe concentration ([2]; ± SEM 5 % growth): -4% | Mean % growth (n = 2) for 1.0 µM probe concentration ([2]; ± SEM 6 % growth): 51% | Mean % growth (n = 2) for 0.01 µM probe concentration ([2]; ± SEM 8 % growth): 90% | inhibition [3]: 21% | inhibition [4]: 17% | inhibition [5]: 64% | inhibition [6]: -7% | inhibition [7]: 20% | pIC50 ([8]; Homo sapiens, HC-4): 5.68 | TGI ([8]; Homo sapiens, HC-4): 13 µM | CC50 ([8]; Homo sapiens, HC-4, read-out: LC50 (the source's name)): 82 µM | Mean % growth (n = 2) for 0.1 µM probe concentration ([8]; ± SEM 1 % growth): 94% | Mean % growth (n = 2) for 0.01 µM probe concentration ([8]; ± SEM 5 % growth): 102% | Mean % growth (n = 2) for 1.0 µM probe concentration ([8]; ± SEM 5 % growth): 59% | Mean % growth (n = 2) for 10.0 µM probe concentration ([8]; ± SEM 8 % growth): 12% | Mean % growth (n = 2) for 100.0 µM probe concentration ([8]; ± SEM 8 % growth): -56% | inhibition [9]: 28% | inhibition [10]: 57% | inhibition [11]: 15% | pIC50 ([12]; Homo sapiens, A498): 5.11 | TGI ([12]; Homo sapiens, A498): 70 µM | CC50 ([12]; Homo sapiens, A498, read-out: LC50 (the source's name)): > 100 µM | Mean % growth (n = 2) for 0.01 µM probe concentration ([12]; ± SEM 2 % growth): 99% | Mean % growth (n = 2) for 10.0 µM probe concentration ([12]; ± SEM 2 % growth): 26% | Mean % growth (n = 2) for 100.0 µM probe concentration ([12]; ± SEM 2 % growth): -1% | Mean % growth (n = 2) for 0.1 µM probe concentration ([12]; ± SEM 5 % growth): 93% | Mean % growth (n = 2) for 1.0 µM probe concentration ([12]; ± SEM 5 % growth): 98%

Cn1cc(Cl)c2c(Oc3c(F)cc(Nc4cc(Cl)nc(N)n4)cc3F)ccnc21 [BAY-4900]
residual activity [13]: 94% | inhibition [14]: 3.14%

Source: ChEMBL document CHEMBL4507274 (2021)
